Values quoted from earlier work, collected in paper PMC8513935.

Legend:
[1] = log P octanol/water from commercial databases, averaged (the ESI); settings: Octanol (wet), 25 C
[2] = experimental, compiled by the authors from the literature (the ESI cites the sources)
[3] = derived by the authors as gas->solvent minus gas->water (a hypothetical dry solvent; the ESI), not a two-phase measurement

| SMILES | log K of transfer, water to solvent [1] | log K of transfer, gas to solvent ([2]; CCl4, 25 C) | log K of transfer, gas to solvent ([2]; Chlorobenzene, 25 C) | log K of transfer, gas to solvent ([2]; Hexadecane, 25 C) | log K of transfer, gas to solvent ([2]; Hexane, 25 C) | log K of transfer, gas to solvent ([2]; Water, 25 C) | log K of transfer, water to solvent ([3]; CCl4, 25 C) | log K of transfer, water to solvent ([3]; Chlorobenzene, 25 C) | log K of transfer, water to solvent ([3]; Hexadecane, 25 C) | log K of transfer, water to solvent ([3]; Hexane, 25 C) | log K of transfer, gas to solvent ([2]; 2-Methylpropan-1-ol, 25 C) | log K of transfer, gas to solvent ([2]; 2-Methylpropan-2-ol, 25 C) | log K of transfer, gas to solvent ([2]; 3-Methylbutan-1-ol, 25 C) | log K of transfer, gas to solvent ([2]; Butan-1-ol, 25 C) | log K of transfer, gas to solvent ([2]; Butan-2-ol, 25 C) | log K of transfer, gas to solvent ([2]; Methanol, 25 C) | log K of transfer, gas to solvent ([2]; Pentan-1-ol, 25 C) | log K of transfer, gas to solvent ([2]; Propan-1-ol, 25 C) | log K of transfer, gas to solvent ([2]; Propan-2-ol, 25 C) | log K of transfer, water to solvent ([3]; 2-Methylpropan-1-ol, 25 C) | also measured |
| --- | --- | --- | --- | --- | --- | --- | --- | --- | --- | --- | --- | --- | --- | --- | --- | --- | --- | --- | --- | --- | --- |
| Cc1ccc(O)cc1 | 1.97 log10 K | 4.72 log10 K | 5.3 log10 K | 4.31 log10 K | 4.16 log10 K | 4.5 log10 K | 0.22 log10 K | 0.8 log10 K | -0.188 log10 K | -0.34 log10 K | – | – | – | – | – | – | – | – | – | – | log K of transfer, gas to solvent ([2]; 1,2-Dichloroethane, 25 C): 5.68 log10 K; log K of transfer, gas to solvent ([2]; Benzene, 25 C): 5.39 log10 K; log K of transfer, gas to solvent ([2]; Chloroform, 25 C): 5.56 log10 K; log K of transfer, gas to solvent ([2]; Cyclohexane, 25 C): 4.36 log10 K; log K of transfer, gas to solvent ([2]; Dichloromethane, 25 C): 5.65 log10 K; log K of transfer, gas to solvent ([2]; Perfluoroalkane, 25 C): 2.67 log10 K; log K of transfer, water to solvent ([3]; 1,2-Dichloroethane, 25 C): 1.18 log10 K; log K of transfer, water to solvent ([3]; Benzene, 25 C): 0.89 log10 K; log K of transfer, water to solvent ([3]; Chloroform, 25 C): 1.06 log10 K; log K of transfer, water to solvent ([3]; Cyclohexane, 25 C): -0.14 log10 K; log K of transfer, water to solvent ([3]; Dichloromethane, 25 C): 1.15 log10 K; log K of transfer, water to solvent ([3]; Perfluoroalkane, 25 C): -1.83 log10 K |
| CCCl | 1.43 log10 K | – | 2.17 log10 K | 1.68 log10 K | 1.91 log10 K | 0.46 log10 K | – | 1.71 log10 K | 1.22 log10 K | 1.45 log10 K | 1.78 log10 K | 1.79 log10 K | 1.78 log10 K | 1.83 log10 K | 1.77 log10 K | 1.93 log10 K | 1.81 log10 K | 1.86 log10 K | 1.81 log10 K | 1.32 log10 K | log K of transfer, water to solvent ([3]; 2-Methylpropan-2-ol, 25 C): 1.33 log10 K; log K of transfer, water to solvent ([3]; 3-Methylbutan-1-ol, 25 C): 1.32 log10 K; log K of transfer, water to solvent ([3]; Butan-1-ol, 25 C): 1.37 log10 K; log K of transfer, water to solvent ([3]; Butan-2-ol, 25 C): 1.31 log10 K; log K of transfer, water to solvent ([3]; Methanol, 25 C): 1.47 log10 K; log K of transfer, water to solvent ([3]; Pentan-1-ol, 25 C): 1.35 log10 K; log K of transfer, water to solvent ([3]; Propan-1-ol, 25 C): 1.4 log10 K; log K of transfer, water to solvent ([3]; Propan-2-ol, 25 C): 1.35 log10 K |
| C=CC | 1.77 log10 K | 1.35 log10 K | – | 0.946 log10 K | 1.29 log10 K | -0.97 log10 K | 2.32 log10 K | – | 1.92 log10 K | 2.25 log10 K | 0.95 log10 K | 0.99 log10 K | 0.963 log10 K | 1.03 log10 K | 0.97 log10 K | 0.95 log10 K | 0.97 log10 K | 0.99 log10 K | 0.97 log10 K | 1.92 log10 K | log K of transfer, gas to solvent ([2]; Butanone, 25 C): 1.13 log10 K; log K of transfer, water to solvent ([3]; 2-Methylpropan-2-ol, 25 C): 1.96 log10 K; log K of transfer, water to solvent ([3]; 3-Methylbutan-1-ol, 25 C): 1.93 log10 K; log K of transfer, water to solvent ([3]; Butan-1-ol, 25 C): 2 log10 K; log K of transfer, water to solvent ([3]; Butan-2-ol, 25 C): 1.94 log10 K; log K of transfer, water to solvent ([3]; Butanone, 25 C): 2.1 log10 K; log K of transfer, water to solvent ([3]; Methanol, 25 C): 1.92 log10 K; log K of transfer, water to solvent ([3]; Pentan-1-ol, 25 C): 1.94 log10 K; log K of transfer, water to solvent ([3]; Propan-1-ol, 25 C): 1.96 log10 K; log K of transfer, water to solvent ([3]; Propan-2-ol, 25 C): 1.94 log10 K |
